Results published in ChEMBL document CHEMBL3580539, “Discovery of small molecule inhibitors targeting the SUMOSIM interaction using a protein interface consensus approach” (Medchemcomm, 2014).

molecular target: Small ubiquitin-related modifier 2/3 (SUMO 2/3) (Homo sapiens, UniProt P61956+P55854); assay: Binding affinity to His-tagged SUMO2/3 (unknown origin) expressed in Escherichia coli BL21 (DE3) measured over 120 secs by SPR analysis

Kd [µM]	SMILES
1.9	CC(NS(=O)(=O)c1ccc(Cl)c(Cl)c1)C(=O)NNC(=O)c1ccccc1O (stereo not drawn)
59	COCC(C)n1c(NCc2ccccn2)nc2ccccc2c1=O (stereo not drawn)
29	C=CCNc1nc(NCc2ccccn2)nc2ccccc12
